In patent US20120238019A1, “STEM CELL CULTURE MEDIA FOR MAINTAINING STEMNESS OR INDUCING DIFFERENTIATION OF STEM CELLS” (COLLEGE OF MEDICINE POCHON CHA UNIVERSITY INDUSTRY-ACADEMIC …, priority 2011, published 2012):

Key:
[1] = test system: human embryonic stem cells (CHA6 cell line); assay: Evaluation of stemness of stem cells cultured in MEF medium (differentiation-inducing) containing PKC inhibitor; format: cell-based; conditions: 5 to 7 days
Description: Colony clumps (5 colony clumps) of human embryonic stem cells (CHA6 cell line, CHA Medical University, Korea) were seeded to each wells of a 96-well plate coated with Matrigel (BD Biosciences, USA). A differentiation-inducing medium, i.e., MEF medium [Dulbecco's Modified Eagle Medium (DMEM) containing high glucose (WeIGENE, Korea) supplemented with 10% (v/v) FBS (WeIGENE, Korea), 1% (v/v) Penicillin/streptomycin (Caisson), 1% (v/v) NEAA (GIBCO), 0.1 mM beta-mercaptoethanol (GIBCO)], was added to the each wells, which were then cultured at about 37° C., in about 5.0% CO2 incubator. The culture was performed for 5 to 7 days, while replacing the medium with a new medium containing 5 uM of 3-[1-[3-(dimethylamino)propyl]-5-methoxy-1H-indol-3-yl]-4-(1H-indol-3-yl)-1H-pyrrole-2,5-dione)(Gö6983, Calbiochem) as a PKC inhibitor, everyday.
As a control, human embryonic stem cells were cultured in the MEF medium without the PKC inhibitor. And also, human embryonic stem cells were cultured in a differentiation-inhibiting medium, i.e., mTeSR-1 medium containing bFGF, TGF-beta, LiCl, GABA, and pipecolic acid (StemCell Technologies, USA). […]

[2] = test system: human embryonic stem cells (CHA6 cell line); assay: Evaluation of stemness of stem cells cultured in non-conditioned medium containing PKC inhibitor; format: cell-based
Description: Colony clumps (5 colony clumps) of human embryonic stem cells (CHA6 cell line, CHA Medical University, Korea) were seeded to each wells of a 96-well plate coated with Matrigel (BD Biosciences, USA). A differentiation-inducing medium, i.e., MEF medium [Dulbecco's Modified Eagle Medium (DMEM) containing high glucose (WeIGENE, Korea) supplemented with 10% (v/v) FBS (WeIGENE, Korea), 1% (v/v) Penicillin/streptomycin (Caisson), 1% (v/v) NEAA (GIBCO), 0.1 mM beta-mercaptoethanol (GIBCO)], was added to the each wells, which were then cultured at about 37° C., in about 5.0% CO2 incubator. […]
Evaluations of stemness were also performed in accordance with the same procedures as in the above (1), using a non-conditioned medium [DMEM/F-12 high-glucose (GIBCO) supplemented with 20% (v/v) knockout serum replacement (GIBCO), 1% (v/v) Penicillin/streptomycin (Caisson), 1% (v/v) NEAA(GIBCO), and 0.1 mM beta-mercaptoethanol (GIBCO)], instead of the MEF medium. In addition, expression levels of Oct4 (Octamer Binding Transcription Factor-4), which is another un-differentiated cell marker, were also evaluated through immunostaining with antibody against Oct4.

[3] = test system: human embryonic stem cells (CHA6 cell line); assay: Evaluation of differentiation of stem cells cultured in mTeSR-1 medium containing PKC activator; format: cell-based
Description: Colony clumps (5 colony clumps) of human embryonic stem cells (CHA6 cell line, CHA Medical University, Korea) were seeded to each wells of a 96-well plate coated with Matrigel (BD Biosciences, USA). A undifferentiation-maintaining medium, i.e., mTeSR-1 medium containing bFGF, TGF-beta, LiCl, GABA, and pipecolic acid (StemCell Technologies, USA), was added to the each wells, which were then cultured at about 37° C., in about 5.0% CO2 incubator. The culture was performed for 5 to 7 days, while replacing the medium with a new medium containing 10 nM of 12-O-tetradecanoylphorbol-13-acetate (TPA) as a PKC activator, everyday. As a control, human embryonic stem cells were cultured in the mTeSR-1 medium without the PKC activator. And also, human embryonic stem cells were cultured in the mTeSR-1 medium treated with both 10 nM of TPA and 5 uM of Go6983.
The cells cultured in the mTeSR-1 medium formed colony shapes, which were conglomerating each other, without differentiation (a in FIG. 3).
As a result of alkaline phosphatase staining, the staining level and colony shape of the cells cultured in the mTeSR-1 medium were similar to those of undifferentiated stem cells (d in FIG. 3).

[4] = test system: human embryonic stem cells (CHA6 cell line); assay: Evaluation of differentiation of stem cells in other undifferentiation-maintaining mediums containing PKC activator; format: cell-based; conditions: FIG. 4
Description: Colony clumps (5 colony clumps) of human embryonic stem cells (CHA6 cell line, CHA Medical University, Korea) were seeded to each wells of a 96-well plate coated with Matrigel (BD Biosciences, USA). […] The culture was performed for 5 to 7 days, while replacing the medium with a new medium containing 10 nM of 12-O-tetradecanoylphorbol-13-acetate (TPA) as a PKC activator, everyday. […]
Evaluations of differentiation were also performed in accordance with the same procedures as in the above (1), using other undifferentiation-maintaining mediums, [i.e., Matrigel (extracellular matrix)/MEF-conditioned medium (Home made; Serum-free media [80% (v/v) DMEM/F12 (GIBCO), 20% (v/v) Knockout serum replacement (GIBCO), 1% (v/v) MEM non-essential amino acids (GIBCO), 0.1 mM β-mercaptoethanol (GIBCO), 1% (v/v) Pennicillin/streptomycin (Caisson)] was conditioned by γ-irradiated CF-1 mouse embryonic fibroblasts (MEF) at 37° C. for 24 hours) and CELLstart (extracellular matrix) (Invitrogen)/and STEMPRO (Invitrogen)], […] In addition, differentiation of other hESC, i.e., H9 hESC line (WiCell, Wis., USA) was also evaluated in the Matrigel (extracellular matrix)/MEF-conditioned medium with a PKC activator.

[5] = test system: H9 hESC line; assay: Evaluation of differentiation of H9 hESC line in Matrigel/MEF-conditioned medium with PKC activator; format: cell-based, human; conditions: FIG. 4

For `COc1ccc2c(c1)c(C1=C(c3c[nH]c4ccccc34)C(=O)NC1=O)cn2CCCN(C)C` [Gö6983, 3-[1-[3-(dimethylamino)propyl]-5-methoxy-1H-indol-3-yl]-4-(1H-indol-3-yl)-1H-pyrrole-2,5-dione], the “shape, existence and distribution of the cells (optical microscope, nucleus-staining with DAPI)” value ([1]; 5 uM PKC inhibitor replaced everyday, Matrigel-coated, FIG. 1 a-f) was “maintained colony shapes, which were conglomerating each other”, the “alkaline phosphatase expression level (un-differentiated cell marker, staining)” value ([1]; 5 uM PKC inhibitor, FIG. 1 g-i) was “significant increase in alkaline phosphatase expression level” and the “alkaline phosphatase expression level” value ([2]; NCM containing Gö6983, FIG. 2A f) was “significant increases”. For the same compound, the “Oct4 expression level (immunostaining)” value ([2]; NCM containing Gö6983, FIG. 2B c) was “significant increases” and the “cell shape under co-treatment with PKC activator (inhibition of TPA-induced differentiation)” value ([3]; mTeSR-1 medium treated with both 10 nM TPA and 5 uM Gö6983, FIG. 3 c and f) was “shapes similar to undifferentiated stem cells”.
With `CCCCCCCCCCCCCC(=O)O[C@@H]1[C@@H](C)[C@@]2(O)[C@@H](C=C(CO)C[C@]3(O)C(=O)C(C)=C[C@@H]23)[C@@H]2C(C)(C)[C@]12OC(C)=O` [TPA, 12-O-tetradecanoylphorbol-13-acetate] the “differentiation, shape and distribution of the cells (optical microscope)” value ([3]; mTeSR-1 medium, 10 nM TPA replaced everyday, 5 to 7 days, FIG. 3 b) was “differentiated and broadly distributed”, the “alkaline phosphatase staining level” value ([3]; mTeSR-1 medium, 10 nM TPA, FIG. 3 e) was “very low alkaline phosphatase staining level” and the “induction of differentiation of hESCs” value ([4]; CELLstart/STEMPRO medium with PKC activator) was “induced differentiation of hESCs”. For the same compound, the “induction of differentiation of hESCs” value ([4]; Matrigel/MEF-conditioned medium with PKC activator) was “induced differentiation of hESCs” and the “induction of differentiation of hESCs” value [5] was “induction of differentiation by the PKC activator was also observed”.
